{
  "source": "patent US11649231B2",
  "about": "“Compound as mTOR inhibitor and use thereof” (MEDICINAL BIOCONVERGENCE RESEARCH CENTER, priority 2018, dated 2023)",
  "data": [
    {"test_system": "mTORC1", "test": "mTORC1 activity inhibitory effect at 20 μM, phospho-p70 S6 Kinase Western blot in SW620 cells", "settings": "leucine-free 1 h 30 min, then leucine 15 min, vs DMSO control", "units": {"mTORC1 inhibitory effect (%)": "%"}, "experimental": "In order to evaluate the inhibitory effect of the compounds according to the present invention on the activity of mTORC1, an experiment was performed in the following manner.", "values": [
      {"smiles": "O=C1NC(=O)/C(=C/c2cnn(-c3ccc(F)cc3)c2)S1", "note": "[Example 1-42, (5Z)-5-[[1-(4-fluorophenyl)pyrazol-4-yl]methylene]thiazolidine-2,4-dione]", "mTORC1 inhibitory effect (%)": "73.81 ± 2.77"},
      {"smiles": "CCCCc1ccc(-n2cc(/C=C3\\SC(=S)NC3=O)cn2)cc1", "note": "[Example 1-26, (5Z)-5-[[1-(4-butylphenyl)pyrazol-4-yl]methylene]-2-thioxo-thiazolidin-4-one]", "mTORC1 inhibitory effect (%)": "59.73 ± 3.55"},
      {"smiles": "CCN1C(=O)/C(=C/c2cnn(-c3ccc4ccccc4c3)c2)SC1=S", "note": "[Example 1-32, (5Z)-3-ethyl-5-[[1-(2-naphthyl)pyrazol-4-yl]methylene]-2-thioxo-thiazolidin-4-one]", "mTORC1 inhibitory effect (%)": "75.04 ± 5.32"},
      {"smiles": "Cc1nn(-c2ccccc2)c(C)c1/C=C1\\SC(=S)NC1=O", "note": "[Example 1-38, (5Z)-5-[(3,5-dimethyl-1-phenyl-pyrazol-4-yl)methylene]-2-thioxo-thiazolidin-4-one]", "mTORC1 inhibitory effect (%)": "75.78 ± 2.60"},
      {"smiles": "CCN1C(=O)/C(=C/c2cnn(-c3ccc(C(C)C)cc3)c2)SC1=S", "note": "[Example 1-25, (5Z)-3-ethyl-5-[[1-(4-isopropylphenyl)pyrazol-4-yl]methylene]-2-thioxo-thiazolidin-4-one]", "mTORC1 inhibitory effect (%)": "36.86 ± 3.47"},
      {"smiles": "CCCCc1ccc(-n2cc(/C=C3\\SC(=O)NC3=O)cn2)cc1", "note": "[Example 1-48, (5Z)-5-[[1-(4-butylphenyl)pyrazol-4-yl]methylene]thiazolidine-2,4-dione]", "mTORC1 inhibitory effect (%)": "69.53 ± 2.04"},
      {"smiles": "O=C1NC(=O)/C(=C/c2cnn(-c3ccc(Cl)cc3)c2)S1", "note": "[Example 1-45, (5Z)-5-[[1-(4-chlorophenyl)pyrazol-4-yl]methylene]thiazolidine-2,4-dione]", "mTORC1 inhibitory effect (%)": "64.18 ± 3.13"},
      {"smiles": "Cc1nn(-c2ccccc2)cc1/C=C1\\SC(=O)NC1=O", "note": "[Example 1-53, (5Z)-5-[(3-methyl-1-phenyl-pyrazol-4-yl)methylene]thiazolidine-2,4-dione]", "mTORC1 inhibitory effect (%)": "71.70 ± 1.70"},
      {"smiles": "C=CCN1C(=O)/C(=C/c2cnn(-c3ccc(C)cc3)c2)SC1=S", "note": "[Example 1-23, (5Z)-3-allyl-5-[[1-(p-tolyl)pyrazol-4-yl]methylene]-2-thioxo-thiazolidin-4-one]", "mTORC1 inhibitory effect (%)": "15.74 ± 10.22"},
      {"smiles": "CC(C)c1ccc(-n2cc(/C=C3\\SC(=O)NC3=O)cn2)cc1", "note": "[Example 1-47, (5Z)-5-[[1-(4-isopropylphenyl)pyrazol-4-yl]methylene]thiazolidine-2,4-dione]", "mTORC1 inhibitory effect (%)": "74.36 ± 1.23"},
      {"smiles": "Cc1ccc(-n2cc(/C=C3\\SC(=S)NC3=O)cn2)cc1", "note": "[Example 1-20, (5Z)-5-[[1-(p-tolyl)pyrazol-4-yl]methylene]-2-thioxo-thiazolidin-4-one]", "mTORC1 inhibitory effect (%)": "83.30 ± 1.76"},
      {"smiles": "CN1C(=O)/C(=C/c2cnn(-c3cccc(Cl)c3)c2)SC1=S", "note": "[Example 1-14, (5Z)-5-[[1-(3-chlorophenyl)pyrazol-4-yl]methylene]-3-methyl-2-thioxo-thiazolidin-4-one]", "mTORC1 inhibitory effect (%)": "46.72 ± 14.22"},
      {"smiles": "Cc1ccc(-n2cc(/C=C3\\SC(=S)N(C)C3=O)cn2)cc1", "note": "[Example 1-21, (5Z)-3-methyl-5-[[1-(p-tolyl)pyrazol-4-yl]methylene]-2-thioxo-thiazolidin-4-one]", "mTORC1 inhibitory effect (%)": "71.18 ± 5.04"},
      {"smiles": "Cc1ccc(-n2cc(/C=C3\\SC(=O)NC3=O)cn2)cc1", "note": "[Example 1-46, (5Z)-5-[[1-(p-tolyl)pyrazol-4-yl]methylene]thiazolidine-2,4-dione]", "mTORC1 inhibitory effect (%)": "74.39 ± 0.62"},
      {"smiles": "O=C1/C(=C/c2cnn(-c3cccnc3)c2)SC(=S)N1CCO", "note": "[Example 1-36, (5Z)-3-(2-hydroxyethyl)-5-[[1-(3-pyridyl)pyrazol-4-yl]methylene]-2-thioxo-thiazolidin-4-one]", "mTORC1 inhibitory effect (%)": "80.88 ± 1.10"},
      {"smiles": "CCN1C(=O)/C(=C/c2cnn(-c3ccccc3)c2)SC1=S", "note": "[Example 1-4, (5Z)-3-ethyl-5-[(1-phenylpyrazol-4-yl)methylene]-2-thioxo-thiazolidin-4-one]", "mTORC1 inhibitory effect (%)": "68.36 ± 1.69"},
      {"smiles": "CCN1C(=O)/C(=C/c2cnn(-c3cccc(Cl)c3)c2)SC1=S", "note": "[Example 1-15, (5Z)-5-[[1-(3-chlorophenyl)pyrazol-4-yl]methylene]-3-ethyl-2-thioxo-thiazolidin-4-one]", "mTORC1 inhibitory effect (%)": "72.46 ± 1.79"},
      {"smiles": "CCN1C(=O)/C(=C/c2cnn(-c3ccc(C)c(C)c3)c2)SC1=S", "note": "[Example 1-29, (5Z)-5-[[1-(3,4-dimethylphenyl)pyrazol-4-yl]methylene]-3-ethyl-2-thioxo-thiazolidin-4-one]", "mTORC1 inhibitory effect (%)": "4.02 ± 6.64"},
      {"smiles": "O=C1NC(=O)/C(=C/c2cnn(-c3cccc(F)c3)c2)S1", "note": "[Example 1-41, (5Z)-5-[[1-(3-fluorophenyl)pyrazol-4-yl]methylene]thiazolidine-2,4-dione]", "mTORC1 inhibitory effect (%)": "49.37 ± 7.34"},
      {"smiles": "O=C1NC(=O)/C(=C/c2cnn(-c3cccc(Cl)c3)c2)S1", "note": "[Example 1-44, (5Z)-5-[[1-(3-chlorophenyl)pyrazol-4-yl]methylene]thiazolidine-2,4-dione]", "mTORC1 inhibitory effect (%)": "50.76 ± 5.28"},
      {"smiles": "Cc1ccc(-n2cc(/C=C3\\SC(=S)NC3=O)cn2)cc1C", "note": "[Example 1-28, (5Z)-5-[[1-(3,4-dimethylphenyl)pyrazol-4-yl]methylene]-2-thioxo-thiazolidin-4-one]", "mTORC1 inhibitory effect (%)": "47.13 ± 3.15"},
      {"smiles": "O=C1NC(=O)/C(=C/c2ccn(-c3cccnc3)n2)S1", "note": "[Example 1-60, (5Z)-5-[[1-(3-pyridyl)pyrazol-3-yl]methylene]thiazolidine-2,4-dione]", "mTORC1 inhibitory effect (%)": "81.52 ± 3.79"},
      {"smiles": "O=C1NC(=O)/C(=C/c2cnn(-c3ccc4ccccc4c3)c2)S1", "note": "[Example 1-51, (5Z)-5-[[1-(2-naphthyl)pyrazol-4-yl]methylene]thiazolidine-2,4-dione]", "mTORC1 inhibitory effect (%)": "53.08 ± 1.81"},
      {"smiles": "Cc1ccc(-n2cc(/C=C3\\SC(=O)NC3=O)cn2)cc1C", "note": "[Example 1-49, (5Z)-5-[[1-(3,4-dimethylphenyl)pyrazol-4-yl]methylene]thiazolidine-2,4-dione]", "mTORC1 inhibitory effect (%)": "68.36 ± 2.99"},
      {"smiles": "CCN1C(=O)/C(=C/c2cnn(-c3ccc(C)cc3)c2)SC1=S", "note": "[Example 1-22, (5Z)-3-ethyl-5-[[1-(p-tolyl)pyrazol-4-yl]methylene]-2-thioxo-thiazolidin-4-one]", "mTORC1 inhibitory effect (%)": "77.21 ± 0.84"},
      {"smiles": "COc1ccccc1-n1cc(/C=C2\\SC(=O)NC2=O)cn1", "note": "[Example 1-50, (5Z)-5-[[1-(2-methoxyphenyl)pyrazol-4-yl]methylene]thiazolidine-2,4-dione]", "mTORC1 inhibitory effect (%)": "38.93 ± 16.04"},
      {"smiles": "O=C1NC(=O)/C(=C/c2cnn(-c3ccccc3Cl)c2)S1", "note": "[Example 1-43, (5Z)-5-[[1-(2-chlorophenyl)pyrazol-4-yl]methylene]thiazolidine-2,4-dione]", "mTORC1 inhibitory effect (%)": "52.34 ± 3.97"},
      {"smiles": "CCN1C(=O)/C(=C/c2cnn(-c3ccccc3Cl)c2)SC1=S", "note": "[Example 1-11, (5Z)-5-[[1-(2-chlorophenyl)pyrazol-4-yl]methylene]-3-ethyl-2-thioxo-thiazolidin-4-one]", "mTORC1 inhibitory effect (%)": "67.22 ± 1.41"},
      {"smiles": "O=C1NC(=S)S/C1=C\\c1cnn(-c2ccc3ccccc3c2)c1", "note": "[Example 1-31, (5Z)-5-[[1-(2-naphthyl)pyrazol-4-yl]methylene]-2-thioxo-thiazolidin-4-one]", "mTORC1 inhibitory effect (%)": "40.20 ± 1.02"},
      {"smiles": "Cn1cc(/C=C2\\SC(=S)N(Cc3ccco3)C2=O)cn1", "note": "[Example 1-2, (5Z)-3-(2-furylmethyl)-5-[(1-methylpyrazol-4-yl)methylene]-2-thioxo-thiazolidin-4-one]", "mTORC1 inhibitory effect (%)": "74.4 ± 0.2"},
      {"smiles": "Cc1nn(-c2ccccc2)c(C)c1/C=C1\\SC(=O)NC1=O", "note": "[Example 1-54, (5Z)-5-[(3,5-dimethyl-1-phenyl-pyrazol-4-yl]methylene]thiazolidine-2,4-dione]", "mTORC1 inhibitory effect (%)": "71.17 ± 4.46"},
      {"smiles": "CN1C(=O)/C(=C/c2cnn(-c3ccc(Cl)cc3)c2)SC1=S", "note": "[Example 1-18, (5Z)-5-[[1-(4-chlorophenyl)pyrazol-4-yl]methylene]-3-methyl-2-thioxo-thiazolidin-4-one]", "mTORC1 inhibitory effect (%)": "50.17 ± 12.77"},
      {"smiles": "CCN1C(=O)/C(=C/c2cnn(-c3ccc(Cl)cc3)c2)SC1=S", "note": "[Example 1-19, (5Z)-5-[[1-(4-chlorophenyl)pyrazol-4-yl]methylene]-3-ethyl-2-thioxo-thiazolidin-4-one]", "mTORC1 inhibitory effect (%)": "54.17 ± 8.55"},
      {"smiles": "CCCCc1ccc(-n2cc(/C=C3\\SC(=S)N(CC)C3=O)cn2)cc1", "note": "[Example 1-27, (5Z)-5-[[1-(4-butylphenyl)pyrazol-4-yl]methylene]-3-ethyl-2-thioxo-thiazolidin-4-one]", "mTORC1 inhibitory effect (%)": "51.70 ± 7.12"},
      {"smiles": "CN1C(=O)/C(=C/c2cnn(-c3ccccc3)c2)SC1=S", "note": "[Example 1-3, (5Z)-3-methyl-5-[(1-phenylpyrazol-4-yl)methylene]-2-thioxo-thiazolidin-4-one]", "mTORC1 inhibitory effect (%)": "53.97 ± 1.49"},
      {"smiles": "CN1C(=O)/C(=C/c2cnn(-c3ccccc3Cl)c2)SC1=S", "note": "[Example 1-10, (5Z)-5-[[1-(2-chlorophenyl)pyrazol-4-yl]methylene]-3-methyl-2-thioxo-thiazolidin-4-one]", "mTORC1 inhibitory effect (%)": "50.52 ± 3.69"},
      {"smiles": "O=C1NC(=S)S/C1=C\\c1ccn(-c2ccc(Cl)cc2)n1", "note": "[Example 1-55, (5Z)-5-[[1-(4-chlorophenyl)pyrazol-3-yl]methylene]-2-thioxo-thiazolidin-4-one]", "mTORC1 inhibitory effect (%)": "74.6 ± 6.5"},
      {"smiles": "C=CCN1C(=O)/C(=C/c2cnn(-c3ccccc3Cl)c2)SC1=S", "note": "[Example 1-12, (5Z)-3-allyl-5-[[1-(2-chlorophenyl)pyrazol-4-yl]methylene]-2-thioxo-thiazolidin-4-one]", "mTORC1 inhibitory effect (%)": "70.93 ± 2.39"},
      {"smiles": "C=CCN1C(=O)/C(=C/c2cnn(-c3cccc(Cl)c3)c2)SC1=S", "note": "[Example 1-16, (5Z)-3-allyl-5-[[1-(3-chlorophenyl)pyrazol-4-yl]methylene]-2-thioxo-thiazolidin-4-one]", "mTORC1 inhibitory effect (%)": "3.74 ± 10.43"},
      {"smiles": "O=C1/C(=C/c2cnn(-c3ccccn3)c2)SC(=S)N1CCO", "note": "[Example 1-34, (5Z)-3-(2-hydroxyethyl)-5-[[1-(2-pyridyl)pyrazol-4-yl]methylene]-2-thioxo-thiazolidin-4-one]", "mTORC1 inhibitory effect (%)": "82.94 ± 1.10"}
    ]}
  ]
}
